# Laboratory results from patent US20050004011A1, “Compositions and methods for treating bacterial infections with protein-dalbavancin complexes” (priority 2002, published 2005).
# Where “and” joins values, the source holds several entries; their conditions need not be identical. Equal entries are not always repeated. Where two headings read alike, the source gives them in different places.
# Tests used:
# [1] = biological target: human α-glycoprotein; assay: Protein binding by isothermal titration microcalorimetry; conditions: for apparent binding affinity Ka: pH 7.4; for Calculated percent binding: α-glycoprotein […]10^−5M
# Method: Integrated heat effects, after correction for heats of dilution, were analyzed by non-linear regression using a simple single-site binding model with the standard Microcal ORIGIN software package. Raw data (μcal/sec) for each injection were integrated to give the total heat effect per addition, then divided by amount of injectant to give kcal/mole of injectant. The same integration was applied for control dilution effects, and this was subtracted from the actual titration data. This provided a differential of the binding curve in which the extent of binding is proportional to the total heat liberated (or absorbed). This was then analyzed by non-linear regression methods in terms of various standard binding models.
# [2] = test system: N,N′-diacetyl-Lys-D-Ala-D-Ala; assay: ITC of binding to tri-peptide, with and without HSA
# [3] = Phase II SSTI trial: adverse events; type: in vivo, human
# Method: Each patient who received at least one dose of study drug (ITT population) was evaluated for drug safety through monitoring of adverse events (AE), including abnormal clinical laboratory test results and vital signs. AE were rated by the investigator as to their severity (mild, moderate, severe, life-threatening), and by the relationship to the study drug (not related, unlikely related, possibly related, or probably related).
# [4] = test system: Streptococcus pyogenes; assay: Dalbavancin MIC of baseline isolates; type: cell-based
# [5] = test system: Gram-positive isolates, including MRSA; assay: MIC against Gram-positive isolates / SSTI pathogens; type: cell-based; conditions: FU assessment
# [6] = Safety assessments in healthy subjects; type: in vivo, human; conditions: single 1000 mg IV
# Method: Adverse events were recorded and assessed for severity and relationship to study drug. Laboratory data (chemistry panel, CBC with differential, urinalysis) were collected and assessed for changes from baseline and out-of-range values. ECG, physical examination, and vital signs were obtained, and changes from baseline were assessed.
# [7] = Rat quantitative tissue distribution (QTD) study; type: in vivo, Sprague-Dawley rats
# Method: Quantitative tissue distribution studies were conducted to assess the tissue distribution of dalbavancin following a single IV infusion of dalbavancin to male rats.
# All samples were analyzed by LSC.
compound,measurement,setting,value
CN[C@H]1C(=O)N[C@@H]2Cc3ccc(cc3)Oc3cc4cc(c3O[C@@H]3O[C@H](C(=O)O)[C@@H](O)[C@H](O)[C@H]3NC(=O)CCCCCCCCC(C)C)Oc3ccc(cc3Cl)[C@@H](O)[C@@H]3NC(=O)[C@H](NC(=O)[C@@H]4NC(=O)[C@@H](NC2=O)c2cc(cc(O)c2Cl)Oc2cc1ccc2O)c1ccc(O)c(c1)-c1c(O[C@H]2O[C@H](CO)[C@@H](O)[C@H](O)[C@@H]2O)cc(O)cc1[C@@H](C(=O)NCCCN(C)C)NC3=O [Dalbavancin],apparent binding affinity Ka,[1]; 25° C.,1.84 (±0.36) ×10^5 M^−1
same,apparent binding affinity Ka,[1]; 37° C.,4.8 (±2.3) ×10^5 M^−1
same,Calculated percent binding,[1]; antibiotic 1 μM,73.0%
same,Calculated percent binding,[1]; antibiotic 500 μM,5.9%
same,weaker binding affinity than in the absence of HSA,"[2]; 25° C., plateau at high HSA",10-12 ×
same,Kass,"[2]; T 25 ° C., [HSA] 104 μM",34900 M⁻¹
same,Kass,"[2]; T 25 ° C., [HSA] 288 μM",31000 M⁻¹
same,Kass,"[2]; T 25 ° C., [HSA] 430 μM",28400 M⁻¹
same,Kass,"[2]; T 37 ° C., [HSA] 0 μM",130000 M⁻¹ and 110000 M⁻¹
same,Kass,"[2]; T 37 ° C., [HSA] 516 μM",9568 M⁻¹
same,Kd,"[2]; read-out: Kdiss (preliminary experiments), absence of serum proteins, depending on temperature",1 to 10 µM
same,Kd,"[2]; read-out: Kdiss, T 25 ° C., [HSA] 288 μM",32.3 µM
same,Kd,"[2]; read-out: Kdiss, T 37 ° C., [HSA] 0 μM",7.69 µM and 9.09 µM
same,Kd,"[2]; read-out: Kdiss, T 37 ° C., [HSA] 516 μM",105 µM
same,Clinically significant hepatotoxicity or nephrotoxicity,[3]; both dalbavancin regimens,no evidence
same,Tolerability,[3]; both doses,well tolerated
same,Dalbavancin MIC,[4]; MITT isolates of standard of care group,(0.016) mg/L
same,Dalbavancin MIC,[4]; MITT isolates of two-dose group,(0.016) mg/L
same,Change in dalbavancin MIC of isolates that persisted,[5],no change
same,Subject deaths or serious adverse events,[6],No subject deaths or serious adverse events
same,Tolerability,[6],well-tolerated
same,Volunteers reporting AEs possibly related to study medication,[6]; six subjects,Three
same,dose recovered in the bile,"[7]; bile duct cannulated rats, over 384 h after the dose",~11%
same,Concentrations of radioactivity in the CNS,[7]; healthy animal model,low but detectable
same,time by which all tissues had quantifiable drug-derived radioactivity,"[7]; post-infusion, 20 mg/kg IV",≤ 12 h
same,"accumulation in tissue, organ or blood cellular component","[7]; rat, in vivo",did not accumulate
same,skin concentrations of drug-derived radioactivity,[7]; relative to plasma,as high as or higher than in plasma
same,Blood to plasma ratio of drug-derived radioactivity,[7]; relatively constant over time,< 1
